In the supplement of paper PMC11061612:

Experiments:
Experiment in all cases: combination Emax (second highest fraction inhibited in the dose matrix, 72 h); higher = more inhibition; extreme values may be limits of the assay
[1] = test system: MFE-319 (Endometrial Carcinoma)
Procedure, shortened: (§1)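 After 24 hours at 37°C and 5% CO2 in 1536-well plates, cells in DMEM/F12 or RPMI plus 10% FBS received two-drug dose matrices for 72 hours. Viability came from CellTiter-Glo 2.0 luminescence and was scaled as inhibition, anchored at 0 by vehicle wells and at 1 by blank wells. Combination Emax is taken as the second-highest inhibition in the matrix, and Bliss excess as the observed combination effect less EA + EB − EA·EB, with EA and EB the single-agent effects.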

IMR-5 (Neuroblastoma) = test system: IMR-5 (Neuroblastoma)
Procedure, shortened: as §1

[2] = test system: NCI-H1573 (Lung Adenocarcinoma)
Procedure, shortened: as §1

[3] = test system: DG-75 (Burkitt's Lymphoma)
Procedure, shortened: as §1

[4] = test system: SCC-3 (B-Cell Non-Hodgkin's Lymphoma)
Procedure, shortened: as §1

EW-18 (Ewing's Sarcoma) = test system: EW-18 (Ewing's Sarcoma)
Procedure, shortened: as §1

[5] = test system: OVISE (Ovarian Carcinoma)
Procedure, shortened: as §1

[6] = test system: KYSE-50 (Esophageal Squamous Cell Carcinoma)
Procedure, shortened: as §1

[7] = test system: JHH-7 (Hepatocellular Carcinoma)
Procedure, shortened: as §1

[8] = test system: KP-2 (Pancreatic Carcinoma)
Procedure, shortened: as §1

[9] = test system: BV-173 (Chronic Myelogenous Leukemia)
Procedure, shortened: as §1

[10] = test system: SNU-C1 (Colorectal Carcinoma)
Procedure, shortened: as §1

[11] = test system: EMC-BAC-2 (Non-Small Cell Lung Carcinoma)
Procedure, shortened: as §1

[12] = test system: NCI-H2405 (Lung Adenocarcinoma)
Procedure, shortened: as §1

GI-1 (Glioblastoma) = test system: GI-1 (Glioblastoma)
Procedure, shortened: as §1

EW-13 (Ewing's Sarcoma) = test system: EW-13 (Ewing's Sarcoma)
Procedure, shortened: as §1

[13] = test system: H-EMC-SS (Chondrosarcoma)
Procedure, shortened: as §1

[14] = test system: SCC-9 (Oral Cavity Carcinoma)
Procedure, shortened: as §1

EW-3 (Ewing's Sarcoma) = test system: EW-3 (Ewing's Sarcoma)
Procedure, shortened: as §1

[15] = test system: NCI-H2347 (Lung Adenocarcinoma)
Procedure, shortened: as §1

Row | SMILES | combination Emax [1] | combination Emax (IMR-5 (Neuroblastoma)) | combination Emax [2] | combination Emax [3] | combination Emax [4] | combination Emax (EW-18 (Ewing's Sarcoma)) | combination Emax [5] | combination Emax [6] | combination Emax [7] | combination Emax [8] | combination Emax [9] | combination Emax [10] | combination Emax [11] | combination Emax [12] | combination Emax (GI-1 (Glioblastoma)) | combination Emax (EW-13 (Ewing's Sarcoma)) | combination Emax [13] | combination Emax [14] | combination Emax (EW-3 (Ewing's Sarcoma)) | combination Emax [15]
1 | CN(CCO)CC[C@H](CSc1ccccc1)Nc1ccc(S(=O)(=O)NC(=O)c2ccc(N3CCC([C@@H](O)c4ccccc4-c4ccc(Cl)cc4)CC3)cc2)cc1S(=O)(=O)C(F)(F)F [AZD4320] + C[C@@H]1COCCN1C2=NC(=NC(=C2)C3(CC3)[S@](=N)(=O)C)C4=C5C=CNC5=NC=C4 [AZD6738] (first compound max 1 µM, 7x7, partner max 10 µM) | 0.928 | 1 | 0.634 | 0.768 | 0.941 | 0.897 | 0.961 | 0.686 | 0.524 | 0.897 | 0.953 | 0.658 | 0.632 | 0.415 | 0.982 | 0.887 | 0.692 | 0.466 | 0.971 | 0.656
2 | NC1(C(=O)N[C@@H](CCO)c2ccc(Cl)cc2)CCN(c2ncnc3[nH]ccc23)CC1 [Capivasertib] + CCN(CCO)CCCOc1ccc2c(Nc3cc(CC(=O)Nc4cccc(F)c4)[nH]n3)ncnc2c1 [AZD2811] (first compound max 10 µM, 7x7, partner max 1 µM) | 0.423 | 1 | 0.323 | 0.606 | 0.309 | 0.811 | 0.41 | 0.388 | 0.294 | 0.132 | 0.915 | 0.588 | 0.564 | 0.329 | 0.754 | 0.388 | 0.488 | 0.275 | 0.595 | 0.231
3 | COc1cccc2c1C(=O)c1c(O)c3c(c(O)c1C2=O)C[C@@](O)(C(=O)CO)C[C@@H]3O[C@H]1C[C@H](N)[C@H](O)[C@H](C)O1 [Doxorubicin] + Cc1cc2ncnn2cc1Nc1ncc2c(n1)n(C1CCOCC1)c(=O)n2C [AZD7648] (first compound max 1 µM, 7x7, partner max 10 µM) | 0.552 | 1 | 0.255 | 0.882 | 0.978 | 0.754 | 0.554 | 0.678 | 0.411 | 0.513 | 0.994 | 0.407 | 0.829 | 0.201 | 0.929 | 0.745 | 0.957 | 0.411 | 0.788 | 0.253
4 | Cc1nc(Nc2ncc(C(=O)Nc3c(C)cccc3Cl)s2)cc(N2CCN(CCO)CC2)n1 [Dasatinib] + CC(=O)Nc1cccc(-n2c(=O)n(C3CC3)c(=O)c3c(Nc4ccc(I)cc4F)n(C)c(=O)c(C)c32)c1 [Trametinib] (first compound max 2 µM, 7x7, partner max 1 µM) | 0.368 | 0.19 | 0.707 | 0.316 | 0.358 | 0.13 | 0.828 | 0.858 | 0.306 | 0.712 | 0.819 | 0.578 | 0.779 | 0.712 | 0.368 | 0 | 0.684 | 0.856 | 0.0371 | 0.716
5 | NC1(C(=O)N[C@@H](CCO)c2ccc(Cl)cc2)CCN(c2ncnc3[nH]ccc23)CC1 [Capivasertib] + C[C@@H]1COCCN1C2=NC(=NC(=C2)C3(CC3)[S@](=N)(=O)C)C4=C5C=CNC5=NC=C4 [AZD6738] (first compound max 10 µM, 7x7, partner max 10 µM) | 0.787 | 0.99 | 0.618 | 0.845 | 0.938 | 0.811 | 0.694 | 0.676 | 0.39 | 0.17 | 0.956 | 0.533 | 0.728 | 0.477 | 0.944 | 0.67 | 0.526 | 0.412 | 0.87 | 0.327
6 | COc1cccc(OCCCN)c1-c1cc(Nc2cnc(C#N)cn2)n[nH]1 [Prexasertib] + Cc1cc2ncnn2cc1Nc1ncc2c(n1)n(C1CCOCC1)c(=O)n2C [AZD7648] (first compound max 1 µM, 7x7, partner max 10 µM) | 0.865 | 0.98 | 0.668 | 0.923 | 1 | 0.742 | 0.716 | 0.818 | 0.458 | 0.57 | 0.964 | 0.759 | 0.538 | 0.412 | 0.987 | 0.512 | 0.458 | 0.49 | 0.736 | 0.39
7 | CC1(C)CCC(CN2CCN(c3ccc(C(=O)NS(=O)(=O)c4ccc(NCC5CCOCC5)c([N+](=O)[O-])c4)c(Oc4cnc5[nH]ccc5c4)c3)CC2)=C(c2ccc(Cl)cc2)C1 [Venetoclax] + CCN(CCO)CCCOc1ccc2c(Nc3cc(CC(=O)Nc4cccc(F)c4)[nH]n3)ncnc2c1 [AZD2811] (first compound max 1 µM, 7x7, partner max 1 µM) | 0.243 | 1 | 0.215 | 0.204 | 0.31 | 0.707 | 0.311 | 0.413 | 0.184 | 0.228 | 0.958 | 0.266 | 0.343 | 0.167 | 0.389 | 0.109 | 0.164 | 0.25 | 0.779 | 0.145
8 | CN(CCO)CC[C@H](CSc1ccccc1)Nc1ccc(S(=O)(=O)NC(=O)c2ccc(N3CCC([C@@H](O)c4ccccc4-c4ccc(Cl)cc4)CC3)cc2)cc1S(=O)(=O)C(F)(F)F [AZD4320] + CN(C)CCCOc1ccc(-c2ccc3ncc4c(c3c2)n(C2CCOCC2)c(=O)n4C)cn1 [AZD0156] (first compound max 1 µM, 7x7, partner max 1 µM) | 0.288 | 0.608 | 0.2 | 0.336 | 0.361 | 0.91 | 0.806 | 0.0706 | 0.425 | 0.897 | 0.95 | 0.439 | 0.185 | 0.224 | 0.342 | 0.636 | 0.46 | 0.26 | 0.95 | 0.45
9 | Cc1cc2ncnn2cc1Nc1ncc2c(n1)n(C1CCOCC1)c(=O)n2C [AZD7648] + C=CCn1c(=O)c2cnc(Nc3ccc(N4CCN(C)CC4)cc3)nc2n1-c1cccc(C(C)(C)O)n1 [AZD1775] (first compound max 10 µM, partner max 1 µM) | 0.68 | 0.781 | 0.308 | 0.833 | 0.815 | 0.553 | 0.635 | 0.431 | 0.392 | 0.187 | 0.964 | 0.392 | 0.392 | 0.192 | 0.86 | 0.332 | 0.53 | 0.293 | 0.329 | 0.359
10 | Cc1c2c(nn1C)CSCc1cc(n(C)n1)CSc1cc(c3ccccc3c1)OCCCc1c(C(=O)O)n(C)c3c-2c(Cl)ccc13 [AZD5991] + Cc1cc2ncnn2cc1Nc1ncc2c(n1)n(C1CCOCC1)c(=O)n2C [AZD7648] (first compound max 1 µM, 7x7, partner max 10 µM) | 0.471 | 1 | 0.673 | 0.362 | 0.308 | 0.936 | 0.269 | 0.284 | 0.164 | 0.2 | 0.946 | 0.412 | 0.678 | 0.204 | 0.672 | 0.403 | 0.479 | 0.26 | 0.727 | 0.287
11 | CC1(C)CCC(CN2CCN(c3ccc(C(=O)NS(=O)(=O)c4ccc(NCC5CCOCC5)c([N+](=O)[O-])c4)c(Oc4cnc5[nH]ccc5c4)c3)CC2)=C(c2ccc(Cl)cc2)C1 [Venetoclax] + C[C@@H](Nc1cc(F)cc(F)c1)c1cc(C(=O)N(C)C)cc2c(=O)cc(N3CCOCC3)oc12 [AZD8186] (first compound max 1 µM, 7x7, partner max 3 µM) | 0.0342 | 0.276 | 0.162 | 0.386 | 0.207 | 0.599 | 0.238 | 0.18 | 0.0915 | 0.0788 | 0.82 | 0.063 | 0.2 | 0.0892 | 0.28 | 0.322 | 0.323 | 0.193 | 0.736 | 0.189
12 | NC1(C(=O)N[C@@H](CCO)c2ccc(Cl)cc2)CCN(c2ncnc3[nH]ccc23)CC1 [Capivasertib] + COc1nnc2ccc(N3CCC(c4ccc(OCCN5CCN(C)C(=O)[C@H]5C)cc4)CC3)nn12 [AZD5153] (first compound max 10 µM, 7x7, partner max 1 µM) | 0.962 | 0.857 | 0.562 | 0.884 | 0.827 | 0.787 | 0.526 | 0.525 | 0.311 | 0.442 | 0.905 | 0.813 | 0.769 | 0.481 | 0.915 | 0.636 | 0.351 | 0.538 | 0.837 | 0.314
